Data published in ChEMBL document CHEMBL5303573, “Mapping human microbiome drug metabolism by gut bacteria and their genes” (Nature, 2019).
Non-standard residues stand in square brackets, D forms with d. Residues, ends and D or L forms follow the SMILES beside them. pGlu = O=C1CC[C@@H](C(=O)O)N1; Thz = O=C(O)[C@@H]1CSCN1

Columns and labels:
[1] = The drug is tested on Bifidobacterium breve strain: DSM20213 for biotransformation. The drug concentrations were measured before and after a 12-h incubation by liquid-chromatography-coupled mass spectrometry (LC–MS); settings: 2 µM
[2] = The drug is tested on Bacteroides caccae strain: ATCC43185 for biotransformation. The drug concentrations were measured before and after a 12-h incubation by liquid-chromatography-coupled mass spectrometry (LC–MS); settings: 2 µM
[3] = parabacteroides johnsonii, 12 h, 2 µM
Description: The drug is tested on Parabacteroides johnsonii strain: DSM18315 for biotransformation. The drug concentrations were measured before and after a 12-h incubation by liquid-chromatography-coupled mass spectrometry (LC–MS)

[4] = anaerostipes sp., 12 h, 2 µM
Description: The drug is tested on Anaerostipes sp. strain: fecal isolate for biotransformation. The drug concentrations were measured before and after a 12-h incubation by liquid-chromatography-coupled mass spectrometry (LC–MS)

[5] = The drug is tested on Eggerthella lenta strain: ATCC25559 for biotransformation. The drug concentrations were measured before and after a 12-h incubation by liquid-chromatography-coupled mass spectrometry (LC–MS); settings: 2 µM
[6] = The drug is tested on Eubacterium rectale strain: ATCC33656 for biotransformation. The drug concentrations were measured before and after a 12-h incubation by liquid-chromatography-coupled mass spectrometry (LC–MS); settings: agathobacter rectalis, 2 µM
[7] = victivallis vadensis, 12 h, 2 µM
Description: The drug is tested on Victivallis vadensis strain: ATCC BAA-548 for biotransformation. The drug concentrations were measured before and after a 12-h incubation by liquid-chromatography-coupled mass spectrometry (LC–MS)

COc1cc(C(=O)NCc2ccc(OCCN(C)C)cc2)cc(OC)c1OC [TRIMETHOBENZAMIDE]
Bacterial Biotransformation [1]: Compound NOT metabolized | Bacterial Biotransformation [2]: Compound NOT metabolized | Bacterial Biotransformation [3]: Compound NOT metabolized | Bacterial Biotransformation [4]: Compound NOT metabolized

CC(=O)OCC(=O)[C@@]1(O)[C@@H](C)C[C@H]2[C@@H]3CCC4=CC(=O)C=C[C@]4(C)[C@@]3(F)[C@@H](O)C[C@@]21C [BETAMETHASONE ACETATE]
Bacterial Biotransformation [5]: Compound NOT metabolized | Bacterial Biotransformation [6]: Compound NOT metabolized | Bacterial Biotransformation [3]: Compound metabolized | Bacterial Biotransformation [4]: Compound NOT metabolized

Cc1cn([C@H]2C[C@H](N=[N+]=[N-])[C@@H](CO)O2)c(=O)[nH]c1=O [ZIDOVUDINE]
Bacterial Biotransformation [1]: Compound NOT metabolized | Bacterial Biotransformation [5]: Compound NOT metabolized | Bacterial Biotransformation [2]: Compound NOT metabolized | Bacterial Biotransformation [6]: Compound NOT metabolized | Bacterial Biotransformation [3]: Compound metabolized

CC(C)(C)N.CCC[C@H](N[C@@H](C)C(=O)N1[C@H](C(=O)O)C[C@@H]2CCCC[C@@H]21)C(=O)OCC [PERINDOPRIL ERBUMINE]
Bacterial Biotransformation [1]: Compound NOT metabolized | Bacterial Biotransformation [2]: Compound NOT metabolized | Bacterial Biotransformation [4]: Compound NOT metabolized | Bacterial Biotransformation [7]: Compound NOT metabolized

CCc1cccc2c3c([nH]c12)C(CC)(CC(=O)O)OCC3 (centres undefined) [ETODOLAC]
Bacterial Biotransformation [5]: Compound NOT metabolized | Bacterial Biotransformation [2]: Compound NOT metabolized | Bacterial Biotransformation [3]: Compound NOT metabolized | Bacterial Biotransformation [4]: Compound NOT metabolized

O=C(CCCN1CCC2(CC1)C(=O)NCN2c1ccccc1)c1ccc(F)cc1 [SPIPERONE]
Bacterial Biotransformation [1]: Compound NOT metabolized | Bacterial Biotransformation [2]: Compound NOT metabolized | Bacterial Biotransformation [4]: Compound NOT metabolized

CCOC(=O)C1=C[C@]2(CC)CCCN3CCc4c(n1c1ccccc41)[C@@H]32 [VINPOCETINE]
Bacterial Biotransformation [1]: Compound NOT metabolized | Bacterial Biotransformation [5]: Compound NOT metabolized | Bacterial Biotransformation [2]: Compound NOT metabolized | Bacterial Biotransformation [6]: Compound NOT metabolized | Bacterial Biotransformation [4]: Compound NOT metabolized

Br.CN1CCC[C@@H]1Cc1c[nH]c2ccc(CCS(=O)(=O)c3ccccc3)cc12 [ELETRIPTAN HYDROBROMIDE]
Bacterial Biotransformation [2]: Compound NOT metabolized | Bacterial Biotransformation [6]: Compound NOT metabolized | Bacterial Biotransformation [4]: Compound NOT metabolized

O=P(O)(O)O.c1ccc(CN(CC2=NCCN2)c2ccccc2)cc1 [ANTAZOLINE PHOSPHATE]
Bacterial Biotransformation [2]: Compound NOT metabolized | Bacterial Biotransformation [6]: Compound NOT metabolized | Bacterial Biotransformation [4]: Compound NOT metabolized

CC(O)(CS(=O)(=O)c1ccc(F)cc1)C(=O)Nc1ccc(C#N)c(C(F)(F)F)c1 (centres undefined) [BICALUTAMIDE]
Bacterial Biotransformation [2]: Compound NOT metabolized | Bacterial Biotransformation [6]: Compound NOT metabolized | Bacterial Biotransformation [3]: Compound NOT metabolized | Bacterial Biotransformation [4]: Compound NOT metabolized

CN(CCOc1ccc(CC2SC(=O)NC2=O)cc1)c1ccccn1.O=C(O)/C=C\C(=O)O (centres undefined) [ROSIGLITAZONE MALEATE]
Bacterial Biotransformation [1]: Compound NOT metabolized | Bacterial Biotransformation [2]: Compound NOT metabolized | Bacterial Biotransformation [3]: Compound NOT metabolized | Bacterial Biotransformation [4]: Compound NOT metabolized

CCCc1nn(C)c2c(=O)[nH]c(-c3cc(S(=O)(=O)N4CCN(C)CC4)ccc3OCC)nc12.O=C(O)CC(O)(CC(=O)O)C(=O)O [SILDENAFIL CITRATE]
Bacterial Biotransformation [1]: Compound NOT metabolized | Bacterial Biotransformation [2]: Compound NOT metabolized | Bacterial Biotransformation [6]: Compound NOT metabolized | Bacterial Biotransformation [3]: Compound NOT metabolized | Bacterial Biotransformation [4]: Compound NOT metabolized

NC(CO)(CO)CO.O=C(c1ccccc1)c1ccc2n1CCC2C(=O)O (centres undefined) [KETOROLAC TROMETHAMINE]
Bacterial Biotransformation [2]: Compound NOT metabolized | Bacterial Biotransformation [6]: Compound NOT metabolized | Bacterial Biotransformation [3]: Compound NOT metabolized | Bacterial Biotransformation [4]: Compound NOT metabolized

CN[C@H]1CC[C@@H](c2ccc(Cl)c(Cl)c2)c2ccccc21 [SERTRALINE]
Bacterial Biotransformation [1]: Compound NOT metabolized | Bacterial Biotransformation [5]: Compound NOT metabolized | Bacterial Biotransformation [2]: Compound NOT metabolized | Bacterial Biotransformation [6]: Compound NOT metabolized | Bacterial Biotransformation [3]: Compound NOT metabolized | Bacterial Biotransformation [4]: Compound NOT metabolized

CCOc1ccccc1OCCN[C@H](C)Cc1ccc(OC)c(S(N)(=O)=O)c1.Cl [TAMSULOSIN HYDROCHLORIDE]
Bacterial Biotransformation [1]: Compound NOT metabolized | Bacterial Biotransformation [5]: Compound NOT metabolized | Bacterial Biotransformation [2]: Compound NOT metabolized | Bacterial Biotransformation [3]: Compound NOT metabolized | Bacterial Biotransformation [4]: Compound NOT metabolized

COc1cc2nc(N(C)CCCNC(=O)C3CCCO3)nc(N)c2cc1OC (centres undefined) [ALFUZOSIN]
Bacterial Biotransformation [2]: Compound NOT metabolized | Bacterial Biotransformation [6]: Compound NOT metabolized | Bacterial Biotransformation [4]: Compound NOT metabolized

CCN1CCCC1CNC(=O)c1cc(S(N)(=O)=O)ccc1OC (centres undefined) [SULPIRIDE]
Bacterial Biotransformation [1]: Compound NOT metabolized | Bacterial Biotransformation [5]: Compound NOT metabolized | Bacterial Biotransformation [2]: Compound NOT metabolized | Bacterial Biotransformation [6]: Compound NOT metabolized | Bacterial Biotransformation [3]: Compound NOT metabolized | Bacterial Biotransformation [4]: Compound NOT metabolized

CCN(C(C)=O)c1cccc(-c2ccnc3c(C#N)cnn23)c1 [ZALEPLON]
Bacterial Biotransformation [1]: Compound NOT metabolized

CCN(CC)CCNC(C(=O)OCCC(C)C)c1ccccc1.Cl.Cl (centres undefined)
Bacterial Biotransformation [2]: Compound NOT metabolized | Bacterial Biotransformation [4]: Compound NOT metabolized | Bacterial Biotransformation [7]: Compound NOT metabolized

COc1cc2nc(N3CCN(C(=O)C4CCCO4)CC3)nc(N)c2cc1OC (centres undefined) [TERAZOSIN]
Bacterial Biotransformation [1]: Compound NOT metabolized | Bacterial Biotransformation [5]: Compound NOT metabolized | Bacterial Biotransformation [2]: Compound NOT metabolized | Bacterial Biotransformation [6]: Compound NOT metabolized | Bacterial Biotransformation [3]: Compound NOT metabolized | Bacterial Biotransformation [4]: Compound NOT metabolized

Cc1ccc(S(=O)(=O)NC(=O)NN2CCCCCC2)cc1 [TOLAZAMIDE]
Bacterial Biotransformation [1]: Compound NOT metabolized | Bacterial Biotransformation [3]: Compound metabolized | Bacterial Biotransformation [4]: Compound NOT metabolized

O=C1N=C([O-])NC1(c1ccccc1)c1ccccc1.[Na+] [PHENYTOIN SODIUM]
Bacterial Biotransformation [1]: Compound NOT metabolized | Bacterial Biotransformation [3]: Compound metabolized | Bacterial Biotransformation [4]: Compound NOT metabolized

O=C1CC2(CCCC2)CC(=O)N1CCCCN1CCN(c2ncccn2)CC1 [BUSPIRONE]
Bacterial Biotransformation [2]: Compound NOT metabolized | Bacterial Biotransformation [6]: Compound NOT metabolized | Bacterial Biotransformation [3]: Compound NOT metabolized | Bacterial Biotransformation [4]: Compound NOT metabolized

CN1CC(=O)N2[C@H](c3ccc4c(c3)OCO4)c3[nH]c4ccccc4c3C[C@@H]2C1=O
Bacterial Biotransformation [1]: Compound NOT metabolized | Bacterial Biotransformation [2]: Compound NOT metabolized | Bacterial Biotransformation [6]: Compound NOT metabolized | Bacterial Biotransformation [4]: Compound NOT metabolized

c1ccc2[nH]c(-c3cscn3)nc2c1 [THIABENDAZOLE]
Bacterial Biotransformation [1]: Compound NOT metabolized | Bacterial Biotransformation [5]: Compound NOT metabolized | Bacterial Biotransformation [2]: Compound NOT metabolized | Bacterial Biotransformation [6]: Compound NOT metabolized | Bacterial Biotransformation [3]: Compound NOT metabolized | Bacterial Biotransformation [4]: Compound NOT metabolized

O=C1CC[C@@H](C(=O)N2CSC[C@H]2C(=O)O)N1 [PIDOTIMOD] ([pGlu]-[Thz]-OH)
Bacterial Biotransformation [1]: Compound NOT metabolized | Bacterial Biotransformation [6]: Compound NOT metabolized | Bacterial Biotransformation [3]: Compound metabolized | Bacterial Biotransformation [4]: Compound NOT metabolized

O=c1n(CCCN2CCN(c3cccc(Cl)c3)CC2)nc2ccccn12 [TRAZODONE]
Bacterial Biotransformation [1]: Compound NOT metabolized | Bacterial Biotransformation [5]: Compound NOT metabolized | Bacterial Biotransformation [2]: Compound NOT metabolized | Bacterial Biotransformation [6]: Compound NOT metabolized | Bacterial Biotransformation [3]: Compound NOT metabolized | Bacterial Biotransformation [4]: Compound NOT metabolized

C[C@@H](c1ncncc1F)[C@](O)(Cn1cncn1)c1ccc(F)cc1F [VORICONAZOLE]
Bacterial Biotransformation [1]: Compound NOT metabolized | Bacterial Biotransformation [5]: Compound NOT metabolized | Bacterial Biotransformation [2]: Compound NOT metabolized | Bacterial Biotransformation [6]: Compound NOT metabolized | Bacterial Biotransformation [3]: Compound NOT metabolized | Bacterial Biotransformation [4]: Compound NOT metabolized

C[C@@H](CO)NC(=O)[C@@H]1C=C2c3cccc4[nH]cc(c34)C[C@H]2N(C)C1.O=C(O)/C=C\C(=O)O [ERGONOVINE MALEATE]
Bacterial Biotransformation [6]: Compound NOT metabolized | Bacterial Biotransformation [3]: Compound metabolized | Bacterial Biotransformation [4]: Compound NOT metabolized

CC(CN1c2ccccc2Sc2ccccc21)N(C)C (centres undefined) [PROMETHAZINE]
Bacterial Biotransformation [1]: Compound NOT metabolized | Bacterial Biotransformation [2]: Compound NOT metabolized | Bacterial Biotransformation [6]: Compound NOT metabolized | Bacterial Biotransformation [3]: Compound NOT metabolized | Bacterial Biotransformation [4]: Compound NOT metabolized

CCCc1nc2c(C)cc(-c3nc4ccccc4n3C)cc2n1Cc1ccc(-c2ccccc2C(=O)O)cc1
Bacterial Biotransformation [1]: Compound NOT metabolized | Bacterial Biotransformation [5]: Compound NOT metabolized | Bacterial Biotransformation [4]: Compound NOT metabolized

CCOc1ccc(NC(C)=O)cc1 [PHENACETIN]
Bacterial Biotransformation [1]: Compound NOT metabolized | Bacterial Biotransformation [2]: Compound NOT metabolized | Bacterial Biotransformation [6]: Compound NOT metabolized | Bacterial Biotransformation [3]: Compound NOT metabolized | Bacterial Biotransformation [4]: Compound NOT metabolized

COc1ccccc1OCC(O)CN1CCN(CC(=O)Nc2c(C)cccc2C)CC1 (centres undefined) [RANOLAZINE]
Bacterial Biotransformation [1]: Compound NOT metabolized | Bacterial Biotransformation [2]: Compound NOT metabolized | Bacterial Biotransformation [6]: Compound NOT metabolized | Bacterial Biotransformation [3]: Compound NOT metabolized | Bacterial Biotransformation [4]: Compound NOT metabolized
